Entries after “also recorded” stand apart in the source; their conditions may differ.
Columns and labels:
[1] = cited from earlier work
[2] = test system: Mouse cultured neurons overexpressing Rhes; assay: accumulation of phosphorylated tau in cultured neurons overexpressing Rhes; type: cell-based; details: increasing concentrations, assayed between 25 to 250 nM
Description: FIG. 1. Mouse cultured neurons overexpressing Rhes display an aberrant accumulation of phosphorylated tau. […] The two lines represent results for separate culture replications.
Mouse cultured neurons overexpressing Rhes display an aberrant accumulation of phosphorylated tau.

rTg4510 mouse [3] = assay: tau pathology in rTg4510 mice (MC1 immunoreactivity, coronal brain area, Iba1 microglia); type: in vivo
Description: These mice develop tau tangles in the cerebral cortex by 4 months of age and in the hippocampus by 5.5 months. By 5.5 months, the mice also lose about 60% of their hippocampal CA1 neurons. Spatial memory deficits become apparent by 2.5 to 4 months of age; however electrophysiological properties of cortical neurons are detected before the accumulation of tau pathology. […] MC1 immunoreactivity, corresponding to neurofibrillary tangles throughout hippocampus, amygdala, entorhinal cortex and cerebrocortex, was first detected at ˜16 weeks and progressed by 20 weeks to a mean of 92.99±13.626 MC1^+ cells/mm^2 in the cerebral cortex, and 67.57±13.113 cells/mm^2 in the hippocampus.
Lonafarnib treatment was initiated when the animals were ten weeks old. The drug was resuspended in 20% HBCD and gavage fed, five days on and five days off at 80 mg/Kg/day. The drug was remarkably effective in reducing MC1 immunoreactivity.

NIH3T3 mouse fibroblasts = assay: macroautophagy flux with tandem reporter mCherry-GFP-LC3B; type: cell-based
rTg4510 mouse [4] = assay: nest building / nest shredding behaviour in rTg4510 mice; type: in vivo; details: prolonged oral 80 mg/Kg/day
Description: FIG. 2. FIG. 2 is a boxplot depicting qualitative scores for mice in shredding nest material for control mice and in the tau mouse model rTg4510 expressing human mutant tau P301L, with efficient shredding scored at 3.5 or higher. Control litter-mates where able to shred their nest material efficiently while rTg4510 mice lost their ability in an age-related matter (score less than 1).
As transgenic mice age, they display progressive worsening that begins with impaired marble burial and nest shredding and by 30 weeks progresses to hyperexcitability, restlessness in response to human approach and obsessive circling. […] Nest building was assessed at 20 weeks. […] At five weeks, littermate controls and transgenic mice produced nests with similar scores.

[5] = test system: lysosomal protein degradation; assay: proteolysis of long-half-life proteins after 3H-leucine pulse; type: cell-based; details: 48 h pulse with 3H-leucine; NH4Cl and leupeptin present
Procedure: To assess this possibility, proteolysis of long-half-life proteins was evaluated after a long pulse (48 h) with ^3H-leucine.

NC(=O)N1CCC(CC(=O)N2CCC([C@H]3c4ncc(Br)cc4CCc4cc(Cl)cc(Br)c43)CC2)CC1 [Lonafarnib]
efficacy and tolerability ([1]; dose of 100-150 mg/m2 body surface area): effective and well tolerated | side effects in humans ([1]; humans): few side effects in humans | accumulation of phosphorylated tau [2]: reduced | MC1+ cells/mm^2 in hippocampus (rTg4510 mouse [3]; 80 mg/Kg/day gavage, five days on and five days off from ten weeks, evaluated at 20 weeks, p=6.4×10^−3 vs vehicle): 13.38±2.615 MC1+ cells/mm^2 | MC1+ cells/mm^2 in cortex (rTg4510 mouse [3]; 80 mg/Kg/day gavage, five days on and five days off from ten weeks, evaluated at 20 weeks, p=7.2×10^−3 vs vehicle): 44.27±4.064 MC1+ cells/mm^2 | hippocampal microgliosis (Iba1) (rTg4510 mouse [3]; 20-week old transgenic mice vs age matched untreated transgenic mice): significantly reduced | coronal brain area (rTg4510 mouse [3]; chronic treatment, 20 weeks, vs vehicle and untreated age-matched transgenic mice): significantly larger | effect as acute intervention on tau pathology (rTg4510 mouse [3]; gavage daily for 2 weeks, 80 mg/Kg/day, 20 week-old rTg4510 mice, after tau pathology was fulminant): ineffective | number of autophagosomes (NIH3T3 mouse fibroblasts; at lower concentrations): remained unchanged | macroautophagy flux (NIH3T3 mouse fibroblasts; basal macroautophagy, NIH3T3 mCherry-GFP-LC3B): dose-dependent increase | macroautophagy flux in induced cells (NIH3T3 mouse fibroblasts; macroautophagy induced by paraquat or thapsigargin): did not further increase macroautophagy flux | nest shredding / nest building (rTg4510 mouse [4]; absence of Doxycicline (L80), chronic intermittent from ten weeks, assessed at 20 weeks, 80 mg/kg/day): prevented the nest shredding deficit; also recorded: rescued nest building | nest shredding (rTg4510 mouse [4]; presence of Doxycicline (L80D)): prevented the nest shredding deficit | proteolysis effect in the presence of NH4Cl and leupeptin [5]: abolished

Reference: patent publication US12527781B2, “Treatment of neurodegenerative conditions by disruption of Rhes” (The Regents of the University of California, priority 2017, dated 2026)
